Source: patent US20140329706A1, “AFFINITY TAGS, AND RELATED AFFINITY LIGANDS, ENGINEERED PROTEINS, MODIFIED SUPPORTS, COMPOSITIONS, METHODS AND SYSTEMS” (CALIFORNIA INSTITUTE OF TECHNOLOGY, priority 2013, published 2014)
Like-named read-outs stand apart in the source and are kept apart here. Where no end group is shown, it is not given here. MBP = maltose binding protein (fusion tag)

Key:
[1] = refs (54-58); read-out: approximate KD; cited from earlier work
[2] = system: NR2B C-terminal PDZ domain binding peptide, 1× nNOS PDZ-β-hairpin domains or 2× nNOS PDZ-β-hairpin domains; assay: Binding of control MBP or GST to peptide and nNOS PDZ affinity resins; conditions: expressed alone without a PDZ domain
From the text: In order to test the hypothesis, PSD-95 PDZ2 domains (e.g. Type C PDZ affinity tags) were fused N- or C-terminally to MBP, or internally between an MBP and GST proteins and purified using affinity chromatography resins comprised of NR2B C-terminal PDZ domain binding peptide (H3N+-[…]-COO—), 1× nNOS PDZ-β-hairpin domains or 2× nNOS PDZ-β-hairpin domains. […] Tags performed equally when fused internally or C-terminally, however N-terminal tag fusions were purified in slightly lower yield.
For the experiment, MBP, GST and PSD-95 PDZ2 domains protein or fusion proteins consisting of MBP and/or GST fused in frame with N-terminal, internal or C-terminal PSD-95 PDZ2 domains (e.g. Type C PDZ affinity tags) were expressed in BL21(DE3) E. coli cells. […] Bacterial cell pellets (0.4-2.5 grams) containing the proteins of interest were resuspended in 5 ml/g cell paste of BugBuster Lysis Buffer [1× BugBuster (Cat. No. 70921, EMD Millipore, Billerica Mass.), 50 mM HEPES, 150 mM NaCl, 5 mM TCEP, 0.5 mM EDTA, 10 mM MgCl2, 2 mM PMSF, Complete Protease Inhibitor supplemented with 25 U/ml Benzonase and 10 U/ml ReadyLyse]. […] Eluted protein was analyzed on 4-12% bis-tris SDS-PAGE gels and proteins were detected by Gel Code Blue staining.

PDZ1 domain of PSD-95 = PDZ1 domain of PSD-95 (Rattus norvegicus, UniProt P31016); conditions: cited from earlier work
PDZ2 domain of PSD-95 = PDZ2 domain of PSD-95 (Rattus norvegicus, UniProt P31016); conditions: cited from earlier work
[3] = target: T1, PSD-95 PDZ2 coupled to a solid support (Mus musculus, UniProt Q62108); assay: Binding of NR2B tail truncation fusion proteins to PSD-95 PDZ2 affinity resin; conditions: elution with SIESDV peptide, SDS-PAGE
T1 construct: pJExpress414 plasmids containing a gene coding for the PDZ2 domain of PSD-95; made in house; host or cells: E. coli BL21(DE3)
T1 sequence (Q62108 160-246 limits assumed): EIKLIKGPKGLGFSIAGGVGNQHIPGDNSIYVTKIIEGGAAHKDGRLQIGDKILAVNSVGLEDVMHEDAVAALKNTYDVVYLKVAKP
Method: For the experiment, fusion proteins containing THX fused to varying numbers of residues from the NR2B Tail ([…]) were expressed in BL21(DE3) E. coli cells. Single colonies of BL21(DE3) cells harboring pJExpress414 plasmids containing genes of interest were grown overnight at 37° C. in 5 ml of lysogeny broth (LB) (Cat. No. L9110, Teknova, Hollister, Calif.) supplemented with 100 ug/ml carbenicillin. Overnight cultures were diluted 1:500 into Overnight Express Instant Terrific Broth (TB) Media (Cat. No. 71491, EMD Millipore, Billerica, Mass.), grown for 16 h at 37° C., pelleted by centrifugation, and flash frozen in liquid nitrogen. Bacterial cell pellets (0.4-2.5 grams) containing fusions of THX fused to varying numbers of residues from the NR2B Tail ([…]) were resuspended in 5 ml/g cell paste of BugBuster Lysis Buffer [1× BugBuster (Cat. No. 70921, EMD Millipore, Billerica Mass.), 50 mM HEPES, 150 mM NaCl, 5 mM TCEP, 0.5 mM EDTA, 10 mM MgCl2, 2 mM PMSF, Complete Protease Inhibitor supplemented with 25 U/ml Benzonase and 10 U/ml ReadyLyse]. Resuspended cells were incubated on a shaking platform at low speed for 20 minutes at room temperature before the lysate was clarified by centrifugation at 16,000×g for 30 min at 4° C. […] Eluted protein was analyzed on 4-12% bis-tris SDS-PAGE gels and proteins were detected by Gel Code Blue staining.
For the experiment, fusion proteins containing MBP fused to varying numbers of residues from the NR2B Tail ([…]) were expressed in BL21(DE3) E. coli cells. […] Bacterial cell pellets (0.4-2.5 grams) containing fusions of MBP fused to varying numbers of residues from the NR2B Tail ([…]) were resuspended in 5 ml/g cell paste of BugBuster Lysis Buffer [1× BugBuster (Cat. No. 70921, EMD Millipore, Billerica Mass.), 50 mM HEPES, 150 mM NaCl, 5 mM TCEP, 0.5 mM EDTA, 10 mM MgCl2, 2 mM PMSF, Complete Protease Inhibitor supplemented with 25 U/ml Benzonase and 10 U/ml ReadyLyse]. […]

[4] = untagged LacZ, Wallenfels & Malhotra, cited from earlier work

## GST: glutathione-S-transferase, known affinity tag and control fusion partner
[1]
  Kd: 40000 to 170000 nM
[2]
  binding to affinity resins: did not bind to any of the three affinity resins

## SIESDV
PDZ1 domain of PSD-95; ref (49)
  Kd: 2300 nM
PDZ1 domain of PSD-95; ref (134)
  Kd: 9700 nM
PDZ2 domain of PSD-95; ref (49)
  Kd: 700 nM
PDZ2 domain of PSD-95; ref (134)
  Kd: 1300 nM

## MBP-EKLSSIESD: MBP fused to NR2B tail sequence lacking the C-terminal valine ({MBP}-EKLSSIESD)
[3]
  binding to and elution from PSD-95 PDZ2 matrix: abolished binding to the column

## LacZ: untagged β-Galactosidase, literature values
[4]; ONPG
  Km: 161 µM
[4]
  VMAX (umol ONPG/mg protein*min): 178* umol ONPG/mg protein*min

## IESDV
[3]
  binding to and elution from PSD-95 PDZ2 matrix: required for effective binding to and elution from the PDZ2 PSD-95 matrix

## GST-EKLSSIESD: GST fused to NR2B tail sequence lacking the C-terminal valine ({GST}-EKLSSIESD)
[3]
  binding to and elution from PSD-95 PDZ2 matrix: abolished binding to the column
